Experimental data: patent US7189756B2, “Pyrrolidine derivatives” (Hoffman-La Roche Inc., priority 2000, dated 2007)

| Compound | melting point [°C] |
| --- | --- |
| CS(=O)(=O)N1C[C@H](S)C[C@H]1COCC1CCCCC1 | 68 to 69 |
| CS(=O)(=O)N1C[C@H](S)C[C@H]1Cn1nnc(C(N)=O)c1N | 189 |
| Cc1c(-c2ccccc2)nnn1C[C@@H]1C[C@@H](S)CN1S(=O)(=O)c1ccc2ccccc2c1 | 146 |

The remaining lines, values ahead:

| melting point [°C] | Compound |
| --- | --- |
| 126 | O=C(Nc1ccccc1F)N1C[C@H](S)C[C@H]1CNCc1cc(F)ccc1F |
| 70 | Nc1c(-c2ccccc2)nnn1C[C@@H]1C[C@@H](S)CN1S(=O)(=O)c1ccc2ccccc2c1 |
| 95 | CCOC(=O)c1nnn(C[C@@H]2C[C@@H](S)CN2S(=O)(=O)c2ccc3ccccc3c2)c1C |
